Measured values from paper PMC6213599 (Marine Drugs, 2018).
≈ marks a conversion by molar mass, not a printed value. Read-outs that look alike come from different tables or passages of the source. Non-standard residues stand in square brackets, D forms with d. Residues, ends and D or L forms follow the SMILES beside them. Hyp = O=C(O)[C@@H]1C[C@@H](O)CN1

Key:
NA [1] = details: cited from earlier work
Excerpt: (§1) To determine the mode of action of the NA-inhibitory peptide, a Lineweaver–Burk kinetic model was used to explore the relationship between the reaction rate and the substrate concentration.

NA [2] = details: no reference given; cited from earlier work
Excerpt: as §1

[3] = tested on: pepsin, chymotrypsin, trypsin; experiment: Simulated in vitro gastrointestinal digestion, NA inhibition read-out; assay type: in vitro ADME; details: 10 mg/mL, pepsin pH 2.0, 37 °C, 2 h, then chymotrypsin pH 7.5, 37 °C, 1 h, three replicates
Procedure: Simulated digestion assay was performed according to the previous method with slight modifications. The NA-inhibitory peptide was dissolved in deionized water to prepare 10 mg/mL solution. The pH was adjusted to 2.0 with 1 mol/L HCl and then pepsin (2.86% of the substrate, dry basis) was added. Digestion was performed at 37 °C for 2 h, followed by boiling for 10 min to stop the enzyme activation. Subsequently, the pH was adjusted to 7.5 with 0.2 mol/L NaOH. After adding chymotrypsin (4.00% of substrate, dry basis), the reaction was carried out at 37 °C for 1 h. The sample was submerged in a 95 °C water bath for 10 min to terminate the enzymatic digestion and cooled on ice to room temperature. Then, trypsin (4.00% of substrate, dry basis) was added, and the above steps were repeated. Afterwards, the digested mixtures were centrifuged at 10,000× g for 10 min to obtain the digestive juices. The NA inhibition assay in digestive juices was detected as described above.

[4] = target: T1, Influenza virus H1N1 neuraminidase (NA) (Influenza A virus, UniProt P03468); assay type: biochemical; details: relative to hydrolysates (<5000 Da), from the IC50 values
[5] = tested on: influenza virus A/Puerto Rico/8/1934 (H1N1) in MDCK cells
MDCK cells = experiment: Cytotoxicity test by MTT assay; assay type: cell-based, canine; details: 48 h
Procedure: The MTT assay was used to determine the effect of the peptide on the viability of MDCK cells. The 96-well plates were used to culture the MDCK cells. After adding 10 μL of PBS containing MTT (0.5 mg/mL) into each well, the solution was incubated at 37 °C for 4 h. After removing the supernatant, 200 μL of DMSO was added into each well. The optical density (OD) for each well was determined at 570 nm. The IC50 was calculated as the concentration of the sample at which the number of viable cells was decreased to 50% of that in the cell control.

[6] = tested on: influenza virus A/Puerto Rico/8/1934 (H1N1) in MDCK cells; remark: listed apart in the source
[7] = tested on: influenza virus H1N1 (HA titer, chicken red blood cells); set-up: species or system influenza A H1N1 virus
[8] = target: T1, Influenza virus H1N1 neuraminidase (NA); experiment: NA inhibition mode, Lineweaver–Burk kinetics; assay type: biochemical; details: Lineweaver–Burk plot
Procedure: The mode of NA inhibition was determined according to the previous method with slight modifications. Various concentrations of MUNANA (1.25, 2.5, 5, 10 and 20 μM) were incubated with NA in the absence or presence (0–2.5 mg/mL) of the peptide P at 37 °C. The inhibition kinetics of NA in the presence of peptide P was determined based on the Lineweaver–Burk plot. The inhibitor constant Ki was calculated by plotting 1/Vmax versus the concentrations of peptide P.

ACE = details: cited from earlier work
[9] = influenza virus A/Puerto Rico/8/1934 in MDCK cells, 1 h, 250 μg/mL

T1 sequence (P03468 whole entry, looked up): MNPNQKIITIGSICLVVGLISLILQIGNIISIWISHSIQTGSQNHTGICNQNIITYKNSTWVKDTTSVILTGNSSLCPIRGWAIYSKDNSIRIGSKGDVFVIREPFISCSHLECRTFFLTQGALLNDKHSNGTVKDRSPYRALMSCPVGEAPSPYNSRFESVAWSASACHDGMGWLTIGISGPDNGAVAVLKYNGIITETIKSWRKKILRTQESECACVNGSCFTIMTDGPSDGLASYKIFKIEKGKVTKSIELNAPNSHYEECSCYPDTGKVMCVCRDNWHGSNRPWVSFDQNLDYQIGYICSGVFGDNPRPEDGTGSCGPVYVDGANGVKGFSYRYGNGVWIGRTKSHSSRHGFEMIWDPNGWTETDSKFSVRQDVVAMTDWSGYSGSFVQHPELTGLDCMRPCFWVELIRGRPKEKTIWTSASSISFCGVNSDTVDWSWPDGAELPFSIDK

## 2-hydroxy-3-methyl-3-butenyl alkyl [HMB]
NA [1]
  Mode of NA inhibition: non-competitive
NA [1]; read-out: IC50 for NA
  IC50: 12.3 µM
NA [1]; read-out: Ki for NA
  Ki: 14 ± 1.5 µM

## CCOC(=O)C1=C[C@@H](OC(CC)CC)[C@H](NC(C)=O)[C@@H](N)C1 [oseltamivir]
NA [2]
  Mode of NA inhibition: competitive

## CC(C)C[C@H](NC(=O)CNC(=O)[C@H](CCC(N)=O)NC(=O)[C@@H]1CCCN1C(=O)CNC(=O)[C@@H]1C[C@@H](O)CN1C(=O)[C@@H](NC(=O)CNC(=O)[C@@H]1C[C@@H](O)CN1C(=O)[C@@H]1CCCN1C(=O)CNC(=O)[C@H](C)NC(=O)[C@@H](NC(=O)CNC(=O)[C@H](C)NC(=O)[C@H](CCC(=O)O)NC(=O)CNC(=O)[C@H](CO)NC(=O)[C@@H]1CCCN1C(=O)CNC(=O)[C@H](CCCCN)NC(=O)[C@H](CCC(=O)O)NC(=O)CNC(=O)[C@@H]1C[C@@H](O)CN1)[C@@H](C)O)[C@@H](C)O)C(=O)O [peptide P] (H-[Hyp]GEKGPSGEAGTAGP[Hyp]GT[Hyp]GPQGL-OH; N-terminus and C-terminus assumed)
[3]
  NA-inhibitory activity after simulated in vitro gastrointestinal digestion: significantly decreased
[3]; listed as NA-inhibitory peptide
  NA-inhibitory activity after simulated in vitro gastrointestinal digestion: almost inactivated
[4]
  Purification Fold: 7.19
[5]
  Inhibition rate, added after the infection (after-adsorption): approximately 31.5%
[5]; [9]
  Inhibition ratio, during viral adsorption: 58%
  Inhibition ratio, pretreatment (added before viral adsorption): 73%
MDCK cells; concentration of 250 μg/mL or less (p > 0.05)
  Cytotoxicity in MDCK cells: no significant cytotoxicity
MDCK cells; concentrations over 250 μg/mL (p < 0.05)
  Viability of MDCK cells: significantly reduced the viability
[6]
  Effect on cytopathic effect (CPE): significantly reduced the cytopathic effect
[6]; influenza virus A/Puerto Rico/8/1934 in MDCK cells, 48 h
  EC50 against H1N1: 471 ± 12 µg/mL (≈ 218 µM)
[6]; influenza virus A/Puerto Rico/8/1934 in MDCK cells, 48 h, 250 μg/mL
  Inhibition of H1N1: 42%
[7]
  HA titer of the virus: significantly reduce the virus titer
[8]
  Mode of NA inhibition: competitive

## NC(=O)c1ncn([C@@H]2O[C@H](CO)[C@@H](O)[C@H]2O)n1 [ribavirin, Ribavirin, reference compound]
[5]; positive control in the time-of-addition experiment
  Inhibition ratio, positive control: 75%

## Trp-Leu
ACE
  ACE inhibitory activity after simulated digestion: completely preserved
